This is an account of results in US20150065345A1, “1,2,4 - TRIAZOLE DERIVATIVES AS HERBICIDALS” (SYNGENTA LIMITED, priority 2012, published 2015).

Type in all cases: in vivo
The test system of experiment [1] is IPOHE. The experiment is described as follows: Glasshouse herbicide test, post-emergence. The conditions noted are these: 1000 g/h, evaluated after 13 days, five point scale. The method, then:
[The procedure below names another species; the source lists this species under the same test.] (§1) Seeds of a variety of test species are sown in standard soil in pots Alopecurus myosuroides (ALOMY), Amaranthus retoflexus (AMARE), Setaria faberi (SETFA), Echinochloa crus-galli (ECHCG), Lolium perenne (LOLPE), Solanum nigrum (SOLNI), Stellaria media (STEME) and Digitaria sanguinalis (DIGSA). After cultivation for one day (pre-emergence) or after 8 days cultivation (post-emergence) under controlled conditions in a glasshouse (at 24/16° C., day/night; 14 hours light; 65% humidity), the plants are sprayed with an aqueous spray solution derived from the formulation of the technical active ingredient in acetone/water (50:50) solution containing 0.5% Tween 20 (polyoxyethelyene sorbitan monolaurate, CAS RN 9005-64-5). Compounds are applied at 1000 g/h. The test plants are then grown in a glasshouse under controlled conditions in a glasshouse (at 24/16° C., day/night; 14 hours light; 65% humidity) and watered twice daily. After 13 days for pre and post-emergence, the test is evaluated for the percentage damage caused to the plant. The biological activities are shown in the following table on a five point scale (5=80-100%; 4=60-79%; 3=40-59%; 2=20-39%; 1=0-19%).

Experiment [2] relates to Amaranthus retoflexus (AMARE). The experiment is described as follows: Glasshouse herbicide test, post-emergence. The note with it: 1000 g/h, evaluated after 13 days, five point scale, second table. How it is done: as §1
Experiment [3] has as its system Solanum nigrum (SOLNI). The experiment is described as follows: Glasshouse herbicide test, post-emergence. The note with it: 1000 g/h, evaluated after 13 days, five point scale. The method, then: as §1
Experiment [4] concerns Setaria faberi (SETFA). The experiment is described as follows: Glasshouse herbicide test, post-emergence. The note with it: 1000 g/h, evaluated after 13 days, five point scale. The method, then:
as §1

For experiment [5], the system named is Echinochloa crus-galli (ECHCG). The experiment can be described thus: Glasshouse herbicide test, post-emergence. The conditions noted are these: 1000 g/h, evaluated after 13 days, five point scale. The method, then:
as §1

Experiment [6] relates to Alopecurus myosuroides (ALOMY). The experiment can be described thus: Glasshouse herbicide test, post-emergence. The note with it: 1000 g/h, evaluated after 13 days, five point scale. How it is done: as §1
Experiment [7] concerns IPOHE. The experiment can be described thus: Glasshouse herbicide test, pre-emergence. The note with it: 1000 g/h, evaluated after 13 days, five point scale. How it is done: [The procedure below names another species; the source lists this species under the same test.] as §1
Experiment [8] relates to Amaranthus retoflexus (AMARE). The experiment is described as follows: Glasshouse herbicide test, pre-emergence. The note with it: 1000 g/h, evaluated after 13 days, five point scale, second table. How it is done: as §1
Experiment [9] deals with Solanum nigrum (SOLNI). The experiment is described as follows: Glasshouse herbicide test, pre-emergence. The conditions noted are these: 1000 g/h, evaluated after 13 days, five point scale. The method, then: as §1
For experiment [10], the system named is Setaria faberi (SETFA). The experiment is described as follows: Glasshouse herbicide test, pre-emergence. The conditions noted are these: 1000 g/h, evaluated after 13 days, five point scale. The method, then:
as §1

In experiment [11] the test system is Echinochloa crus-galli (ECHCG). The experiment is described as follows: Glasshouse herbicide test, pre-emergence. The conditions noted are these: 1000 g/h, evaluated after 13 days, five point scale. The method, then:
as §1

In experiment [12] the test system is Alopecurus myosuroides (ALOMY). The experiment can be described thus: Glasshouse herbicide test, pre-emergence. The note with it: 1000 g/h, evaluated after 13 days, five point scale. The method, then: as §1

Regarding `Cn1cnnc1NC(=O)c1ccc(C(F)(F)F)cc1S(C)(=O)=O` [Compound 1.008], in the experiment on IPOHE [1], the “percentage damage caused to the plant, IPOHE, POST Application” value is 5 (5=80-100%). Besides, in experiment [2], the “percentage damage caused to the plant, AMARE, POST Application” value is recorded as 5 (5=80-100%). Also, the “percentage damage caused to the plant, SOLNI, POST Application” value in the experiment on Solanum nigrum (SOLNI) [3] is given as 5 (5=80-100%). For the same compound, the “percentage damage caused to the plant, SETFA, POST Application” value in the experiment with Setaria faberi (SETFA) [4] was 3 (3=40-59%). The “percentage damage caused to the plant, ECHCG, POST Application” value in [5] is reported as 4 (4=60-79%). For the same compound, the “percentage damage caused to the plant, ALOMY, POST Application” value in [6] is 3 (3=40-59%). Further, the “percentage damage caused to the plant, IPOHE, PRE Application” value in the experiment with IPOHE [7] is reported as 4 (4=60-79%). The “percentage damage caused to the plant, AMARE, PRE Application” value in [8] is listed as 5 (5=80-100%). Besides, the “percentage damage caused to the plant, SOLNI, PRE Application” value in the experiment on Solanum nigrum (SOLNI) [9] is listed as 5 (5=80-100%). Further, the “percentage damage caused to the plant, SETFA, PRE Application” value in the experiment with Setaria faberi (SETFA) [10] is given as 3 (3=40-59%). Besides, the “percentage damage caused to the plant, ECHCG, PRE Application” value in experiment [11] is reported as 5 (5=80-100%). Besides, the “percentage damage caused to the plant, ALOMY, PRE Application” value in experiment [12] is recorded as 2 (2=20-39%).
As for `Cc1nnc(NC(=O)c2ccc(C(F)(F)F)cc2S(C)(=O)=O)n1C` [Compound 1.009], the “percentage damage caused to the plant, IPOHE, POST Application” value with IPOHE [1] is given as 3 (3=40-59%). Also, the “percentage damage caused to the plant, AMARE, POST Application” value in [2] is 2 (2=20-39%). The “percentage damage caused to the plant, SOLNI, POST Application” value in the experiment with Solanum nigrum (SOLNI) [3] was 4 (4=60-79%). The “percentage damage caused to the plant, SETFA, POST Application” value in the experiment on Setaria faberi (SETFA) [4] is 1 (1=0-19%). In addition, the “percentage damage caused to the plant, ECHCG, POST Application” value in [5] is 1 (1=0-19%). In addition, the “percentage damage caused to the plant, ALOMY, POST Application” value in experiment [6] is on record as 2 (2=20-39%). Also, the “percentage damage caused to the plant, IPOHE, PRE Application” value in the experiment with IPOHE [7] is 1 (1=0-19%). Besides, in experiment [8], the “percentage damage caused to the plant, AMARE, PRE Application” value is 4 (4=60-79%). Moreover, the “percentage damage caused to the plant, SOLNI, PRE Application” value in the experiment with Solanum nigrum (SOLNI) [9] is on record as 2 (2=20-39%). The “percentage damage caused to the plant, SETFA, PRE Application” value in the experiment on Setaria faberi (SETFA) [10] was 1 (1=0-19%). Besides, the “percentage damage caused to the plant, ECHCG, PRE Application” value in experiment [11] is listed as 1 (1=0-19%). The “percentage damage caused to the plant, ALOMY, PRE Application” value in [12] is 1 (1=0-19%).
Turning to `CCc1nnc(NC(=O)c2ccc(C(F)(F)F)cc2S(C)(=O)=O)n1C` [Compound 1.010], the “percentage damage caused to the plant, IPOHE, POST Application” value with IPOHE [1] is 2 (2=20-39%). Besides, the “percentage damage caused to the plant, AMARE, POST Application” value in experiment [2] was 1 (1=0-19%). In addition, the “percentage damage caused to the plant, SOLNI, POST Application” value in the experiment with Solanum nigrum (SOLNI) [3] is on record as 2 (2=20-39%). For the same compound, the “percentage damage caused to the plant, SETFA, POST Application” value with Setaria faberi (SETFA) [4] is 2 (2=20-39%). Besides, in [5], the “percentage damage caused to the plant, ECHCG, POST Application” value is 2 (2=20-39%). The “percentage damage caused to the plant, ALOMY, POST Application” value in experiment [6] is 2 (2=20-39%). Also, in the experiment on IPOHE [7], the “percentage damage caused to the plant, IPOHE, PRE Application” value is on record as 1 (1=0-19%). Moreover, the “percentage damage caused to the plant, AMARE, PRE Application” value in experiment [8] is 1 (1=0-19%). The “percentage damage caused to the plant, SOLNI, PRE Application” value in the experiment on Solanum nigrum (SOLNI) [9] is given as 1 (1=0-19%). Besides, the “percentage damage caused to the plant, SETFA, PRE Application” value with Setaria faberi (SETFA) [10] is listed as 1 (1=0-19%). Moreover, the “percentage damage caused to the plant, ECHCG, PRE Application” value in [11] is given as 1 (1=0-19%). Besides, the “percentage damage caused to the plant, ALOMY, PRE Application” value in experiment [12] is given as 1 (1=0-19%).
With `CCn1cnnc1NC(=O)c1ccc(C(F)(F)F)cc1S(C)(=O)=O` [Compound 1.011], the “percentage damage caused to the plant, IPOHE, POST Application” value with IPOHE [1] is given as 5 (5=80-100%). Besides, the “percentage damage caused to the plant, AMARE, POST Application” value in [2] is given as 5 (5=80-100%). Further, in the experiment on Solanum nigrum (SOLNI) [3], the “percentage damage caused to the plant, SOLNI, POST Application” value is on record as 5 (5=80-100%). The “percentage damage caused to the plant, SETFA, POST Application” value in the experiment with Setaria faberi (SETFA) [4] is recorded as 2 (2=20-39%). The “percentage damage caused to the plant, ECHCG, POST Application” value in experiment [5] is 4 (4=60-79%). In addition, the “percentage damage caused to the plant, ALOMY, POST Application” value in [6] is 2 (2=20-39%). Moreover, in the experiment on IPOHE [7], the “percentage damage caused to the plant, IPOHE, PRE Application” value was 4 (4=60-79%). The “percentage damage caused to the plant, AMARE, PRE Application” value in [8] is given as 5 (5=80-100%). Further, the “percentage damage caused to the plant, SOLNI, PRE Application” value in the experiment on Solanum nigrum (SOLNI) [9] was 5 (5=80-100%). Moreover, the “percentage damage caused to the plant, SETFA, PRE Application” value in the experiment with Setaria faberi (SETFA) [10] is listed as 2 (2=20-39%). The “percentage damage caused to the plant, ECHCG, PRE Application” value in [11] is on record as 4 (4=60-79%). Moreover, the “percentage damage caused to the plant, ALOMY, PRE Application” value in [12] is recorded as 1 (1=0-19%).
